Where two headings read alike, the source gives them in different places.
Columns and labels:
[1] = biological target: human thrombin (Homo sapiens, UniProt P00734); assay: Inhibition of amidolytic activity of human thrombin (Ki, fluorogenic substrate Tos-Gly-Pro-Arg-AMC); format: biochemical
Procedure: In an assay to determine the inhibitory dissociation constant, Ki, for a given compound, a chromogenic or fluorogenic substrate of thrombin would be added to a solution containing a test compound and thrombin; the resulting catalytic activity of the enzyme would be spectrophotometrically determined. This type of assay is well known to those skilled in the art.
Determination of K1 Values for Heterocyclics
The steady-state velocity was then measured for a few minutes. The compounds of this invention were also pre-incubated with thrombin for 20 minutes at room temperature before adding the substrate.

[2] = test system: carotid artery in rats; assay: FeCl3 induced carotid arterial injury model (arterial thrombosis) in rats, time to occlusion; format: in vivo, rat (Sprague-Dawley); conditions: Table 2; ivb + inf 0.75-50 (iv bolus mg/kg, infusion μg/kg/min)
Procedure: Arterial Thrombosis Model
FeCl3 Induced Carotid Arterial Injury Model
Animals were laid on a 37° C. heating pad. The carotid artery was exposed through a midline cervical incision. Careful blunt dissection was used to isolate the vessel from the carotid sheath. […] A temperature probe (Physitemp*MT23/3) was placed between one of the pieces of tubing and the artery. Injury was induced by topical application on the carotid artery above the temperature probe of a small disc (3 mm dia.) of Whatman* No. 1 filter paper previously dipped in a 35% solution of FeCl3 […]. The vessel temperature was monitored for 60 minutes after application of FeCl3 as an indication of blood flow.
The time between the FeCl3 application and the time at which the vessel temperature decreased abruptly (>2.4° C.) was recorded as the time to occlusion of the vessel. Inhibitor compounds were given as an iv bolus (mg/kg) followed immediately by an iv infusion (μg/kg/min. via femoral vein). The dose of inhibitor needed to double the time to occlusion in comparison to control animals in which injury was induced in the absence of inhibitor was determined.

Row | Compound | Ki ([1]; Table 1, read-out: Ki (inhibitory dissociation constant for human thrombin)) | Ki ([1]; Table 2, read-out: Ki) | M.O.T (min)+/-sem [2]
1 | N=C(N)NCCCC(NC(=O)[C@@H]1CSC2CC[C@@H](Cc3ccccc3)C(=O)N21)C(=O)CCC(=O)O (stereo partly drawn) [Compound 0095, 6S-benzylhexahydro-5-oxo-5H-thiazolo[3,2-a]pyridine-3R-carboxamido((propanoic acid)ketoarginine)] | 26000 nM |  | 
2 | N=C(N)NCCCC(NC(=O)[C@@H]1CS[C@H]2CC[C@@H](Cc3ccccc3)C(=O)N21)C(=O)c1nc2ccccc2s1 (stereo partly shown) [Compound 0210, 6-Benzyl-5-oxo-hexahydro-thiazolo[3,2-a]pyridine-3-carboxylic acid[1-(benzothiazole-2-carbonyl)-4-guanidino-butyl]-amide] |  | 8 nM | 20.13 ± 3.4 min
3 | CC12CCC(Cc3ccc4nc(C(F)(F)F)ccc4c3)C(=O)N1C(C(=O)NC(CCCNC(=N)N)C(=O)c1nccs1)CS2 (stereo not shown) [Compound 0285, 8a-Methyl-5-oxo-6-(2-trifluoromethyl-quinolin-6-ylmethyl)-hexahydro-thiazolo[3,2-a]pyridine-3-carboxylic acid[4-guanidino-1-(thiazole-2-carbonyl)-butyl]-amide] |  |  | 11.33 ± 1.34 min
4 | Cn1ccnc1C(=O)C(CCCNC(=N)N)NC(=O)[C@@H]1CS[C@@H]2CC[C@@H](Cc3ccccc3)C(=O)N21 (stereo partly shown) [Compound 0255, 6-Benzyl-5-oxo-hexahydro-thiazolo[3,2-a]pyridine-3-carboxylic acid[4-guanidino-1-(1-methyl-1H imidazole-2-carbonyl)butyl]-amide] |  | 500 nM | 
5 | CC12CCC(CCc3ccccc3)C(=O)N1C(C(=O)NC(CCCNC(=N)N)C(=O)c1nc3ccccc3s1)CS2 (stereo not shown) [Compound 0225, 8a-Methyl-5-oxo-6-phenethyl-hexahydro-thiazolo[3,2-a]pyridine-3-carboxylic acid[1-(benzothiazole-2-carbonyl)-4-guanidino-butyl]-amide] |  |  | 23 ± 7 min
6 | N=C(N)NCCCC(NC(=O)C1CSC2CCC(N3C(=O)c4ccccc4C3=O)C(=O)N21)C(=O)c1nccs1 (single isomer, unassigned) [Compound 0295b] |  |  | 19 ± 2.7 min
7 | CC12CCC(Cc3ccccc3)C(=O)N1C(C(=O)NC(CCCNC(=N)N)C(=O)c1nccs1)CS2 (stereo not shown) [Compound 0260, 6-Benzyl-8a-methyl-5-oxo-hexahydro-thiazolo[3,2-a]pyridine-3-carboxylic acid[4-guanidino-1-(thiazole-2-carbonyl)-butyl]-amide] |  |  | 14.83 ± 0.2 min

Second part, led by results:

Row | Ki ([1]; Table 1, read-out: Ki (inhibitory dissociation constant for human thrombin)) | Ki ([1]; Table 2, read-out: Ki) | Compound | M.O.T (min)+/-sem [2]
8 |  | 120 nM | N=C(N)NCCCC(NC(=O)[C@@H]1CSCC2CC[C@H](Cc3ccccc3)C(=O)N21)C(=O)c1nccs1 (stereo partly shown) [Compound 0935, 7-Benzyl-6-oxo-octahydro-pyrido[2,1-c][1,4]thiazine-4-carboxylic acid[4-guanidino-1-(thiazole-2-carbonyl)butyl]-amide] | 
9 |  | 1000 nM | N=C(N)NCCCC(NC(=O)[C@@H]1CS(=O)(=O)C[C@H]2CC[C@@H](Cc3ccccc3)C(=O)N21)C(=O)c1nccs1 (single isomer, unassigned) [Compound 0950b] | 
10 |  | 220 nM | N=C(N)NCCCC(NC(=O)[C@@H]1CSC2CC[C@H](NC(=O)CCc3ccccc3)C(=O)N21)C(=O)c1nccs1 (single isomer, unassigned) [Compound 0305a] | 
11 |  | 12000 nM | N=C(N)NCCCC(NC(=O)[C@@H]1CSC2CC[C@H](NC(=O)CCc3ccccc3)C(=O)N21)C(=O)c1nccs1 (single isomer, unassigned) [Compound 0305b] | 
12 |  | 45 nM | N=C(N)NCCCC(NC(=O)C1CSC2CCC(NC(=O)CCc3ccccc3)C(=O)N21)C(=O)c1nccs1 (stereo not shown) [0315a + b] | 
13 |  | 160 nM | N=C(N)NCCCC(NC(=O)[C@@H]1CSC[C@H]2CC[C@@H](CCc3ccccc3)C(=O)N21)C(=O)c1nccs1 (single isomer, unassigned) [Compound 0940b] | 
14 |  | 150 nM | N=C(N)NCCCC(NC(=O)[C@@H]1CS(=O)(=O)C[C@H]2CC[C@@H](Cc3ccccc3)C(=O)N21)C(=O)c1nccs1 (single isomer, unassigned) [Compound 0950a] | 
15 |  | 30 nM | N=C(N)NCCCC(NC(=O)[C@@H]1CSC[C@H]2CC[C@@H](Cc3ccccc3)C(=O)N21)C(=O)c1nccs1 (single isomer, unassigned) [Compound 0925b] | 

Reference: patent US6057314A, “Low molecular weight bicyclic thrombin inhibitors” (Biochem Pharma Inc., priority 1997, dated 2000)
